Among the data in ChEMBL document CHEMBL1130119, “2-Carbomethoxy-3-aryl-8-oxabicyclo[3.2.1]octanes: potent non-nitrogen inhibitors of monoamine transporters” (J Med Chem, 1997) are IC50 and Selectivity ratio values, retold here.

In assay [1] the target is Sodium-dependent serotonin transporter (Homo sapiens, UniProt P31645). The assay can be described thus: Inhibition of [3H]citalopram binding to the serotonin transporter (5-HT) in monkey caudate-putamen. Type of assay: tissue-based, Cercopithecidae. As to conditions: target entry is the homologue from another species.
Sodium-dependent serotonin transporter, sequence (P31645 whole entry): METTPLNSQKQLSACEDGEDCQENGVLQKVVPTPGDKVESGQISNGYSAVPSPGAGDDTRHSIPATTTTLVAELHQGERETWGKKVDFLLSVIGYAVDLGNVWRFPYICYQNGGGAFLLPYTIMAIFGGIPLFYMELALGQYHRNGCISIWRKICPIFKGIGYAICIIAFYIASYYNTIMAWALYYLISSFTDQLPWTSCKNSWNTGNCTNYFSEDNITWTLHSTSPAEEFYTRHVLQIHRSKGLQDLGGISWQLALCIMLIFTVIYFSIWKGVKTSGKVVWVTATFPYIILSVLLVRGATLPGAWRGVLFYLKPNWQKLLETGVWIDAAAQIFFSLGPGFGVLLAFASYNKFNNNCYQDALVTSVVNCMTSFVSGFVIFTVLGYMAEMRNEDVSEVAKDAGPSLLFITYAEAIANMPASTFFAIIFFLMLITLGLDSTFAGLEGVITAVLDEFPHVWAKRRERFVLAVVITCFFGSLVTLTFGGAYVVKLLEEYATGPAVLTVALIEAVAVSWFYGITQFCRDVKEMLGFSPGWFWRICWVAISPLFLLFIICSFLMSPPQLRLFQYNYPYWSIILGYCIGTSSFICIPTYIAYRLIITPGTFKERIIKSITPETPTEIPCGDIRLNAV
In assay [2] the target is Monoamine transporters; serotonin & dopamine (Homo sapiens) (UniProt P31645+Q01959). The assay is described as follows: Selectivity ratio measured as the IC50 ratio of DAT receptor to that of 5-HT transporter. As to conditions: Cercopithecidae.
Monoamine transporters; serotonin & dopamine (Homo sapiens), sequence (P31645 whole entry, looked up): as the sequence (P31645 whole entry) above
Monoamine transporters; serotonin & dopamine (Homo sapiens), sequence (Q01959 whole entry, looked up): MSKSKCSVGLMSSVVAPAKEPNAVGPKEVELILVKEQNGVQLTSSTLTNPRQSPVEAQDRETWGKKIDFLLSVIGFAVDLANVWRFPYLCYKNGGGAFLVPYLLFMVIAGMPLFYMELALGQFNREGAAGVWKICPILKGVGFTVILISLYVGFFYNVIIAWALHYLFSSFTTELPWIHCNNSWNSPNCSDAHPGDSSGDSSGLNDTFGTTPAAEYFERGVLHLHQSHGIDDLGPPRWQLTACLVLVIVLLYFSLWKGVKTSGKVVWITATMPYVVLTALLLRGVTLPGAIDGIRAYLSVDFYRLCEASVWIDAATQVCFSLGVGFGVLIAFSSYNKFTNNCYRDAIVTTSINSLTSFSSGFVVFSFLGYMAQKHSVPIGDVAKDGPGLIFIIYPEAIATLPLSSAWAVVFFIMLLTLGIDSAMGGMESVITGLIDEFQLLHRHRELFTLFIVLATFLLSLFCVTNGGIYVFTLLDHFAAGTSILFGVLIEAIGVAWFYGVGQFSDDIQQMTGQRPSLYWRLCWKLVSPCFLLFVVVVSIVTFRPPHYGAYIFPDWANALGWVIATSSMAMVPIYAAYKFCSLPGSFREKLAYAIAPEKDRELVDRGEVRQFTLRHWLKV

Bounds are passed on as bounds.

One may read the IC50 as the concentration at which inhibition is half-maximal. `COC(=O)C1C2CCC(CC1c1ccc(I)cc1)O2` (stereo in doubt) [listing 1 of 2 here] came in with an IC50 in assay [1] of 12 nM.

For `COC(=O)C1C2CCC(CC1c1ccc(I)cc1)O2` (stereo in doubt) [listing 2 of 2 here], the Selectivity ratio in assay [2] was 1.7.

With `COC(=O)C1C2CCC(CC1c1ccccc1)O2` (stereo in doubt; 6a (O-904)) [listing 1 of 2 here], the IC50 in assay [1] is above 10000 nM.

Consider `COC(=O)C1C2CCC(CC1c1ccccc1)O2` (stereo in doubt; 6a (O-904)) [listing 2 of 2 here], for which the Selectivity ratio in assay [2] amounted to 10.

Take `COC(=O)C1C2CCC(CC1c1ccc(F)cc1)O2` (stereo in doubt; 6b (O-895)) [listing 1 of 2 here]: the IC50 in assay [1] was determined as 2580 nM.

For `COC(=O)C1C2CCC(CC1c1ccc(F)cc1)O2` (stereo in doubt; 6b (O-895)) [listing 2 of 2 here], the Selectivity ratio in assay [2] worked out at 5.

With `COC(=O)C1C2CCC(CC1c1ccc(Cl)cc1)O2` (stereo in doubt; 6c (O-916)) [listing 1 of 2 here], the IC50 in assay [1] was determined as 107 nM.

Turning to `COC(=O)C1C2CCC(CC1c1ccc(Cl)cc1)O2` (stereo in doubt; 6c (O-916)) [listing 2 of 2 here], the Selectivity ratio in assay [2] was 11.

Take `COC(=O)C1C2CCC(CC1c1ccc(Cl)c(Cl)c1)O2` (stereo in doubt; 6f (O-914)) [listing 1 of 2 here]: the IC50 in assay [1] stood at 6.52 nM.

Regarding `COC(=O)C1C2CCC(CC1c1ccc(Cl)c(Cl)c1)O2` (stereo in doubt; 6f (O-914)) [listing 2 of 2 here], the Selectivity ratio in assay [2] was found to be 2.

On to `COC(=O)C1C2CCC(CC1c1ccccc1)O2` (stereo in doubt; 7a (O-905)) [listing 1 of 2 here], for which the IC50 in assay [1] worked out at 11400 nM.

Turning to `COC(=O)C1C2CCC(CC1c1ccccc1)O2` (stereo in doubt; 7a (O-905)) [listing 2 of 2 here], the Selectivity ratio in assay [2] turned out to be 6.

On to `COC(=O)C1C2CCC(CC1c1ccc(F)cc1)O2` (stereo in doubt; 7b (O-899)) [listing 1 of 2 here], for which the IC50 in assay [1] is above 10000 nM.

In the case of `COC(=O)C1C2CCC(CC1c1ccc(F)cc1)O2` (stereo in doubt; 7b (O-899)) [listing 2 of 2 here], in assay [2], the Selectivity ratio stood at 10.

Consider `COC(=O)C1C2CCC(CC1c1ccc(Cl)cc1)O2` (stereo in doubt; 7c (O-915)) [listing 1 of 2 here], for which the IC50 in assay [1] came out at 816 nM.

`COC(=O)C1C2CCC(CC1c1ccc(Cl)cc1)O2` (stereo in doubt; 7c (O-915)) [listing 2 of 2 here]: the Selectivity ratio in assay [2] stood at 29.

Consider `COC(=O)C1C2CCC(CC1c1ccc(I)cc1)O2` (stereo in doubt; 7e (O-949)) [listing 1 of 2 here], for which the IC50 in assay [1] was 72 nM.

For `COC(=O)C1C2CCC(CC1c1ccc(I)cc1)O2` (stereo in doubt; 7e (O-949)) [listing 2 of 2 here], the Selectivity ratio in assay [2] is 2.

For `COC(=O)C1C2CCC(CC1c1ccc(Cl)c(Cl)c1)O2` (stereo in doubt; 7f (O-913)) [listing 1 of 2 here], the IC50 in assay [1] was determined as 64.5 nM.

Take `COC(=O)C1C2CCC(CC1c1ccc(Cl)c(Cl)c1)O2` (stereo in doubt; 7f (O-913)) [listing 2 of 2 here]: the Selectivity ratio in assay [2] was found to be 21.

Regarding `COC(=O)C1C(c2ccc(I)cc2)CC2CCC1N2C` (stereo in doubt; 8d), the IC50 in assay [1] stood at 4.21 nM.

`COC(=O)[C@H]1[C@@H](c2ccc(F)cc2)C[C@H]2CC[C@H]1N2C` (stereo in doubt; 19b) showed a half-maximal inhibitory concentration (IC50) in assay [1] of 5060 nM.

In assay [1], `COC(=O)C1C(c2ccc(I)cc2)CC2CCC1N2C` (stereo in doubt; 19d) returned an IC50 of 64.9 nM.

As for `COC(=O)C1C2CCC(CC1c1ccc(Cl)c(Cl)c1)O2` (stereo in doubt; form 1) [listing 1 of 2 here], the IC50 in assay [1] turned out to be 58 nM.

`COC(=O)C1C(c2ccc(Cl)c(Cl)c2)CC2CCC1N2C` (stereo in doubt; form 1) yielded an IC50 in assay [1] of 27 nM.

The molecule `COC(=O)C1C2CCC(CC1c1ccc(Br)cc1)O2` (stereo in doubt; form 1) [listing 1 of 2 here] had an IC50 in assay [1] of 30 nM.

In the case of `COC(=O)C1C2CCC(CC1c1ccc(Br)cc1)O2` (stereo in doubt; form 1) [listing 2 of 2 here], the Selectivity ratio in assay [2] was determined as 1.4.

On to `COC(=O)C1C2CCC(CC1c1ccc(Cl)c(Cl)c1)O2` (stereo in doubt; form 1) [listing 2 of 2 here], for which the Selectivity ratio in assay [2] worked out at 1.2.

As to `COC(=O)C1C2CCC(CC1c1ccc(Cl)c(Cl)c1)O2` (stereo in doubt; form 2) [listing 1 of 2 here], the IC50 in assay [1] came to 2860 nM.

Take `COC(=O)C1C2CCC(CC1c1ccc(Br)cc1)O2` (stereo in doubt; form 2) [listing 1 of 2 here]: the IC50 in assay [1] came to 276 nM.

Turning to `COC(=O)C1C2CCC(CC1c1ccc(Br)cc1)O2` (stereo in doubt; form 2) [listing 2 of 2 here], the Selectivity ratio in assay [2] is 31.

In the case of `COC(=O)C1C2CCC(CC1c1ccc(Cl)c(Cl)c1)O2` (stereo in doubt; form 2) [listing 2 of 2 here], the Selectivity ratio in assay [2] was found to be 51.

`COC(=O)C1C2CCC(CC1c1ccc(Cl)c(Cl)c1)O2` (stereo in doubt; form 3) [listing 1 of 2 here] displayed an IC50 in assay [1] of 31 nM.

On to `COC(=O)C1C2CCC(CC1c1ccc(Cl)c(Cl)c1)O2` (stereo in doubt; form 3) [listing 2 of 2 here], for which the Selectivity ratio in assay [2] turned out to be 13.

In the case of `COC(=O)C1C2CCC(CC1c1ccc(Cl)c(Cl)c1)O2` (stereo in doubt; form 4) [listing 1 of 2 here], the IC50 in assay [1] worked out at 4.67 nM.

In the case of `COC(=O)C1C2CCC(CC1c1ccc(Cl)c(Cl)c1)O2` (stereo in doubt; form 4) [listing 2 of 2 here], the Selectivity ratio in assay [2] came out at 1.4.
